Measured values reported in patent US12378204B2, “Triazole compounds and preparation method therefor and use thereof” (WUHAN LL SCIENCE AND TECHNOLOGY DEVELOPMENT CO., LTD., priority 2019, dated 2025).

What was measured:
Format in all cases: cell-based
[1] = biological target: T1, hLPAR1 (human lysophosphatidic acid receptor 1) (Homo sapiens, UniProt Q92633); assay: FLIPR intracellular calcium assay, hLPAR1 expressed in CHO-K1 cells; settings: antagonism of 1 μM LPA-induced calcium increase, CHO-K1 cells expressing hLPAR1; read-out: LPAR1 IC50
T1 construct: expressed in transfected cells
Description: The antagonist property of the compounds disclosed herein was determined using the FLIPR (fluorescence imaging plate reader) method, wherein the compounds are inhibitors for the intracellular calcium increase induced by activation of hLPAR1 (human lysophosphatidic acid receptor 1, accession No. NM_001401.4) expressed in CHO-K1 cells (Chinese hamster ovary cells K1, ATCC).
CHO-K1 cells stably expressing hLPAR1 were cultured in F-12 medium containing 10% FBS (fetal bovine serum, Gibco, 10099-141), 1% penicillin-streptomycin (Gibco, 15140-122) and 0.4 mg/mL hygromycin B (Gibco, 10687010) in a cell incubator (37° C., […]). During 18-24 h prior to the FLIPR experiment, cells at 250,000 cells/mL were seeded into a 96-well plate (25,000 cells/well) and incubated overnight in the cell incubator. On the day of the experiment, the medium was discarded and the cells were washed in a FLIPR buffer (0.3 mL of probenecid (Thermo, P36400), 0.6 mL of 1 M HEPES (Invitrogen, 15630080) and 29.1 mL of HBSS (Invitrogen, 14065056) per 30 mL of buffer). Each well was added with 75 μL of 1 mM Fluo-4 AM fluorescent dye (Thermo, F14202) and then the cells were subjected to dye-loading incubation at 37° C. for 1.0 h. The 96-well plate was then washed once with buffer, added with a buffer containing a test compound or vehicle at 50 μL per well and then incubated for 30 min at room temperature. The cell plate was then placed in the FLIPR for baseline fluorescence measurements (excitation at 485 nm and emission at 525-535 nm). An agonist (oleoyl-L-α-lysophosphatidic acid sodium salt (Sigma, L7260) at a final concentration of 1 μM) or a vehicle (ultrapure water) was then added at 50 μL/well, fluorescence values were measured for 2 min at 1-second intervals, and finally the output fluorescence counts were analyzed.

[2] = system: A2058 (human melanoma cells); assay: A2058 cell scratch assay (cell migration inhibition); settings: A2058 scratch area 0 h vs 24 h, 10 μM LPA, read-out: Cell migration inhibition rate
Description: The activity of the compounds disclosed herein at the cell level in vitro is evaluated by A2058 (human melanoma cells, Beina Bio, BNCC341099) cell scratch assay. The inhibitory activity of the compounds against LPAR1 can be reflected by inhibition of cell scratch healing.
A2058 cells in a T75 cm^2 cell culture flask were digested and gently pipetted into single cells, adjusted to a cell density of 4×10^5 cells/mL, and then seeded into a 24-well plate. After the cell confluence reached 80%, the cell culture plate was taken out and the original medium was discarded. Serum-free medium was then added, and the cells were starved overnight in an incubator (37° C., 5% CO2). The cell culture plate was then taken out, and cell scratches were made along the diameter of the wells using a 200 μL pipette tip. The cell culture plate was then added with 500 μL of serum-free medium and then shaken gently to wash away the residual cells on the scratched surface, and this was repeated twice. The medium was discarded and 500 μL of 1% FBS medium containing the compound was then added, and the mixture was incubated at 37° C. for 30 min. […] Olympus CKX53 was used to observe the scratches, and MShot image analysis system was used to take pictures and measure the scratch area at 0 h. Then the cell culture plate was incubated in the incubator (37° C., 5% CO2). 24 h later, the scratches were observed again with Olympus CKX53, and MShot image analysis system was used to take pictures and measure the scratch area at 24 h. Cell migration inhibition rate was calculated according to the following formula: […]

[3] = In vitro cytotoxicity assay in HepG2 cells, CCK-8 method; settings: human, 48 h incubation
Description: In vitro cytotoxicity assay for the compounds disclosed herein was performed in HepG2 cells using the CCK-8 method. HepG2 cells (Beina Bio) in the logarithmic growth phase were collected, the concentration of cell suspension was adjusted, and then the cells were plated on a 96-well cell culture plate at 50,000 cells/well. • The cells were then incubated overnight in a cell incubator (5% CO2, 37° C.), and after 80-90% cell confluence was achieved, test compounds or vehicle (DMSO) at various concentration gradients were added after medium change. The resulting mixture was incubated in the cell incubator (5% CO2, 37° C.) for 48 h. After the treatment, the medium in the plate was discarded. The plate was washed twice with PBS, added with CCK-8 working solution (Beyotime) at 100 μL per well, and then incubated at 37° C. for 1.5 h in the dark. Absorbance at OD450nm was measured for each well on a microplate reader, and CC50 value of each compound was analyzed and calculated.

T1 sequence (Q92633 whole entry): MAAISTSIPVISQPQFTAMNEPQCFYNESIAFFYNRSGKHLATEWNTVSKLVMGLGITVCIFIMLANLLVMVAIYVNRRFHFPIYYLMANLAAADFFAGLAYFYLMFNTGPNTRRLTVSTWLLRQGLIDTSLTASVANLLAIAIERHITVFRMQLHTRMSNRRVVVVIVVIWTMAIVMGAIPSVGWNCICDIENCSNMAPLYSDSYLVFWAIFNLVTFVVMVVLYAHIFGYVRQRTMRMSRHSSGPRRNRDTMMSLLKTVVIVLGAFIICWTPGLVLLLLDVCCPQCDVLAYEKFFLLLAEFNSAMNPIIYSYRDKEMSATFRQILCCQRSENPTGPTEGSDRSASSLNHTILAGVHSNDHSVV

With Cn1nnc(-c2ccc(O[C@H]3CCC[C@H](C(=O)O)C3)cc2)c1NCC1CCCC1 (racemic) [Compound 36] the IC50 [1] was 300 to 10000 nM.
For CN(Cc1c(-c2ccc(O[C@H]3CCC[C@H](C(=O)O)C3)cc2)nnn1C)C(=O)OCc1ccccc1 [Compound 14, (1S,3S)-3-(4-(5-((((benzyloxy)carbonyl)(methyl)amino)methyl)-1-methyl-1H-1,2,3-triazol-4-yl)phenoxy)cyclohexane-1-carboxylic acid], the IC50 [1] was 50 to 300 nM, the inhibition [2] was 30 to 50% and the CC50 at 48 h [3] was greater than 200000 nM.
Cn1nnc(-c2ccc(O[C@H]3CCC[C@H](C(=O)O)C3)cc2)c1CNS(=O)(=O)c1ccccc1 (racemic) [Compound 18, (+/−)-(1S,3S)-3-(4-(1-methyl-5-(benzenesulfonamidomethyl)-1H-1,2,3-triazol-4-yl)phenoxy)cyclohexane-1-carboxylic acid] gave an IC50 [1] of 50 to 300 nM, an inhibition [2] of 30 to 50% and a CC50 at 48 h [3] greater than 200000 nM.
Compound Cn1nnc(-c2ccc(O[C@H]3CCC[C@H](C(=O)O)C3)cc2)c1CS(=O)(=O)NC1CCCC1 (racemic) [Compound 33] has an IC50 [1] of 300 to 10000 nM.
CN(C(=O)NCc1c(-c2ccc(O[C@H]3CCC[C@H](C(=O)O)C3)cc2)nnn1C)C1CCCC1 (racemic) [Compound 30, (+/−)-(1S,3S)-3-(4-(5-((3-cyclopentyl-3-methylureido)methyl)-1-methyl-1H-1,2,3-triazol-4-yl)phenoxy)cyclohexane-1-carboxylic acid] gave an IC50 [1] of 50 to 300 nM, an inhibition [2] of 30 to 50% and a CC50 at 48 h [3] greater than 200000 nM.
Compound Cn1nnc(-c2ccc(O[C@H]3CCC[C@H](C(=O)O)C3)cc2)c1Cn1ccn(Cc2ccccc2)c1=O (racemic) [Compound 16, (+/−)-(1S,3S)-3-(4-(5-((3-benzyl-2-carbonyl-2,3-dihydro-1H-imidazol-1-yl)methyl)-1-methyl-1H-1,2,3-triazol-4-yl)phenoxy)cyclohexane-1-carboxylic acid] has an IC50 [1] of 300 to 10000 nM, an inhibition [2] of 30 to 50% and a CC50 at 48 h [3] greater than 200000 nM.
Cn1nnc(-c2ccc(O[C@H]3CCC[C@H](C(=O)O)C3)cc2)c1NCc1ccccc1 (racemic) [Compound 24, (+/−)-(1S,3S)-3-(4-(5-(benzylamino)-1-methyl-1H-1,2,3-triazol-4-yl)phenoxy) cyclohexane-1-carboxylate] showed an IC50 [1] of 300 to 10000 nM, an inhibition [2] of 0 to 30% and a CC50 at 48 h [3] greater than 200000 nM.
Compound Cc1ncc(-c2c(-c3ccc(O[C@H]4CCC[C@H](C(=O)O)C4)cc3)nnn2C)o1 (racemic) [Compound 15, (+/−)-(1S,3S)-3-(4-(1-methyl-5-(2-methyloxazol-5-yl)-1H-1,2,3-triazol-4-yl)phenoxy) cyclohexane-1-carboxylic acid] has an IC50 [1] of 300 to 10000 nM, an inhibition [2] of 30 to 50% and a CC50 at 48 h [3] greater than 200000 nM.
CN(C(=O)Cc1c(-c2ccc(O[C@H]3CCC[C@H](C(=O)O)C3)cc2)nnn1C)C1CCCC1 (racemic) [Compound 19] gave an IC50 [1] of 50 to 300 nM, an inhibition [2] of 0 to 30% and a CC50 at 48 h [3] greater than 200000 nM.
With Cn1nnc(-c2ccc(O[C@H]3CCC[C@H](C(=O)O)C3)cc2)c1CN1CCN(Cc2ccccc2)C1=O (racemic) [Compound 17, (+/−)-(1S,3S)-3-(4-(5-((3-benzyl-2-carbonylimidazolidin-1-yl)methyl)-1-methyl-1H-1,2,3-triazol-4-yl)phenoxy)cyclohexane-1-carboxylic acid] the IC50 [1] was 50 to 300 nM, the inhibition [2] was 0 to 30% and the CC50 at 48 h [3] was greater than 200000 nM.
CN(Cc1ccccc1)C(=O)OCc1c(-c2ccc(OCCC(=O)O)cc2)nnn1C [Compound 11, 3-(4-(5-(((benzyl(methyl)carbamoyl)oxo)methyl)-1-methyl-1H-1,2,3-triazol-4-yl)phenoxy)propionic acid] showed an IC50 [1] of 50 to 300 nM, an inhibition [2] of 0 to 30% and a CC50 at 48 h [3] greater than 200000 nM.
CN(C(=O)CCc1nnn(C)c1-c1ccc(O[C@H]2CCC[C@H](C(=O)O)C2)c(C(F)(F)F)n1)C1CCCC1 (racemic) [Compound 27-B, (+/−)-(1S,3S)-3-((6-(4-(3-(cyclopentyl(methyl)amino)-3-carbonylpropyl)-1-methyl-1H-1,2,3-triazol-5-yl)-2-(trifluoromethyl)pyridin-3-yl)oxo)cyclohexane-1-carboxylic acid] gave an IC50 [1] of 300 to 10000 nM, an inhibition [2] of 0 to 30% and a CC50 at 48 h [3] greater than 200000 nM.
Compound Cn1nnc(C#CO[C@H]2CCC[C@H](C(=O)O)C2)c1COc1nccc(C2CC2)n1 (racemic) [Compound 39] has an IC50 [1] of no more than 50 nM.
Work on Cn1nnc(-c2ccc(O[C@H]3CCC[C@H](C(=O)O)C3)cc2)c1CNC(=O)Cc1ccccc1 [Compound 4, (1S,3S)-3-((4-(5-(2-N-phenylacetamido))-1-methyl-1H-1,2,3-triazol-4-yl)-phenoxy)cyclohexane-1-carboxylic acid] yielded an IC50 [1] of 50 to 300 nM, an inhibition [2] of 30 to 50% and a CC50 at 48 h [3] greater than 200000 nM.
Compound Cn1nnc(-c2ccc(O[C@H]3CCC[C@H](C(=O)O)C3)cc2)c1CNC(=O)C1CCCC1 (racemic) [Compound 20, (+/−)-(1S,3S)-3-(4-(5-(cyclopentanecarboxamido<oxalylamino>methyl)-1-methyl-1H-1,2,3-triazol-4-yl)phenoxy)cyclohexane-1-carboxylate] has an IC50 [1] of 50 to 300 nM, an inhibition [2] of 30 to 50% and a CC50 at 48 h [3] greater than 200000 nM.
For Cn1nnc(-c2ccc(O[C@H]3CCC[C@H](C(=O)O)C3)c(C(F)(F)F)n2)c1CNC(=O)OC1CCCC1 (racemic) [Compound 28, (+/−)-(1S,3S)-3-((6-(5-((((cyclopentyloxy)carbonyl)amino)methyl)-1-methyl-1H-1,2,3-triazol-4-yl)-2-(trifluoromethyl)pyridin-3-yl)oxo)cyclohexane-1-carboxylic acid], the IC50 [1] was 50 to 300 nM, the inhibition [2] was 50 to 70% and the CC50 at 48 h [3] was greater than 200000 nM.
CN(Cc1ccccc1)C(=O)OCc1cn(-c2ccc(O[C@H]3CCC[C@H](C(=O)O)C3)cc2)nn1 (racemic) [Compound 6, (+/−)-(1S,3S)-3-(4-(4-(((benzyl(methyl)carbamoyl)oxo)methyl)-1H-1,2,3-triazol-1-yl)phenoxy)cyclohexane-1-carboxylic acid] showed an IC50 [1] of 50 to 300 nM, an inhibition [2] of 30 to 50% and a CC50 at 48 h [3] greater than 200000 nM.
CN(Cc1ccccc1)C(=O)OCc1c(C2CC2O[C@H]2CCC[C@H](C(=O)O)C2)nnn1C (mixture of isomers) [Compound 32] gave an IC50 [1] of 300 to 10000 nM.
Work on CN(Cc1ccccc1)C(=O)OCc1c(-c2ccc(N[C@H]3CCC[C@H](C(=O)O)C3)cc2)nnn1C [Compound 13, 3-((4-(5-(((benzyl(methyl)carbamoyl)oxo)methyl)-1-methyl-1H-1,2,3-triazol-4-yl)phenyl)amino)cyc lohexanecarboxylic acid] yielded an IC50 [1] of 50 to 300 nM, an inhibition [2] of 0 to 30% and a CC50 at 48 h [3] greater than 200000 nM.
Compound Cn1nnc(-c2ccc(O[C@H]3CCC[C@H](C(=O)O)C3)cc2)c1NC(=O)Cc1ccccc1 (racemic) [Compound 37] has an IC50 [1] of 300 to 10000 nM.
Compound Cc1nnn(-c2ccc(O[C@H]3CCC[C@H](C(=O)O)C3)cc2)c1N(C)C(=O)OC1CCCC1 (racemic) [Compound 34] has an IC50 [1] of 300 to 10000 nM.
Compound Cn1nnc(-c2ccc(O[C@H]3CCC[C@H](C(=O)O)C3)cc2)c1CNc1ncc(C2CCCC2)o1 (racemic) [Compound 38] has an IC50 [1] of 300 to 10000 nM.
CN(C(=O)OCc1c(-c2ccc(O[C@H]3CCC[C@H](C(=O)O)C3)cc2)nnn1C1CC1)C1CCCC1 [Compound 35] showed an IC50 [1] of 300 to 10000 nM.
